Patent US20130296370A1, “COMPOSITION COMPRISING A PHOTOACTIVATABLE LARVICIDE” (UNIVERSITA DEGLI STUDI DI PADOVA, priority 2010, published 2013)

Tests used:
Culex sp. = conditions: cited from earlier work
Tetrahymena thermophila = conditions: in vivo
Protocol: (§1) The dark- and photo-toxic activity of free C12 (wherein C12 means porphyrin C12) was tested on representative components of mosquito's breeding sites biota, the results are shown in table 6, as minimal photosensitizing dose (μM). […] Sensitivity to phototreatment (visible light, 10 mW/cm^2) was obviously different, as C. inflate trophozoites and even cysts were highly photosensitive, while Artemia franciscana nauplii appeared to be highly resistant.

[1] = C12 photo-bleaching in water; assay type: physicochemical; conditions: free porphyrin in water; 1 hour irradiation, visible light 150 mW/cm^2
Protocol: Moreover, with the aim to determine the level of degradation of the free porphyrin in the water after exposure to sunlight, the rate of C12 photo-bleaching was followed spectrophotometrically by measuring the porphyrin absorption spectrum in the 350-700 nm range upon exposure to visible light at a fluence rate of 150 mW/cm^2. After 1 hour irradiation the porphyrin concentration decreased up to 50%.

[2] = tested on: Anopheles spp + Aedes spp; assay: Tray larvicide test on field-collected mosquitoes; assay type: in vivo; conditions: carrier Eudragit; 30 mg per tray; loading concentration 50 μM; sunlight
Protocol: (§2) Laboratory strains of Anopheles stephensi, M and S (Kisumu), chromosomal forms of An. gambiae, An. arabiensis and Aedes aegypti, as well as field-collected Anopheles spp. and Aedes spp. larvae were used. Laboratory mosquitoes were maintained at 28-30° C., >90% RH and a photoperiod of 12 h. Light intensity ranged between 0.5 mW/cm^2 (fluorescent lamp) and 185 mW/cm^2 (sunlight).
(§3) C12 or C14 porphyrin solutions at 5-100 μM concentrations were pre-incubated at room temperature in the darkness with 15-60 mg of carrier (either Eudragit or ground mouse food or cat food) for 4-12 hours under gentle shaking. After incubation the solutions were filtered, and the loaded carrier was dried at room temperature or in an oven (45° C.).
(§4) One litre capacity, transparent plastic trays containing wells with each 500 ml water and 6-60 mg of the composition of the present invention were prepared. Batches of 60-100 L2, L3 or L4 larvae were introduced into the trays after sunset (or artificial light off). Larval mortality was evaluated the next day starting from 8.00 am, and the time required to reach at least 90% mortality was recorded. Larvae not moving or not showing an escaping response at probing were defined as dead or dying, and counted together (Tables 2 and 3). Pupae occasionally formed throughout the irradiation time were discarded and excluded from the evaluation. An equal number of batches of larvae prepared in the same way were kept in continuous darkness and mortality was evaluated similarly, to assess toxicity in the dark.
(§5) Each result derives from an independent, representative experiment. Light source: sunlight in all cases, intensity range: 4-185 mW/cm^2

Anopheles spp = assay: Tray larvicide test on field-collected mosquitoes; assay type: in vivo; conditions: sunlight
Protocol: as §2, §3, §4, §5

Artemia franciscana [3] = assay: Effect of free porphyrin on non-target organisms of aqueous habitats; assay type: in vivo; conditions: 1 h irradiation, fluorescent lamp
Protocol: (§6) The effect of free porphyrin, wherein porphyrin means porphyrin C12, dissolved in water on the photosensitivity of potential aqueous non-target organisms was evaluated on Colpoda inflata, Artemia franciscana and Daphnia magna, a protozoan and two crustacean organisms frequently found in aqueous environments. The mortality data were recorded after 1 h irradiation with visible light emitted by a fluorescent lamp.

Colpoda inflata = assay: as above; assay type: in vivo; conditions: 1 h irradiation, fluorescent lamp
Protocol: as §6

Daphnia magna [4] = assay: as above; assay type: in vivo; conditions: 1 h irradiation, fluorescent lamp
Protocol: as §6

Artemia franciscana [5] = assay: Dark- and photo-toxic activity of free C12 on breeding site biota; assay type: in vivo; conditions: nauplii; 1 h incubation; visible light 10 mW/cm^2
Protocol: as §1

[6] = tested on: Chlamydomonas reinhardtii; assay: as above; assay type: in vivo; conditions: vegetative cells; 1 h incubation; visible light 10 mW/cm^2
Protocol: as §1

Daphnia magna [7] = assay: as above; assay type: in vivo; conditions: young individuals; 1 h incubation; visible light 10 mW/cm^2
Protocol: as §1

An. gambiae (M) = assay: Laboratory-scale tray larvicide test; assay type: in vivo; conditions: sun
Protocol: as §2, §3, §4
(§7) Light intensity range: 0.5-185 mW/cm^2.

An. arabiensis = assay: Laboratory-scale tray larvicide test; assay type: in vivo; conditions: sun
Protocol: as §2, §3, §4, §7

[8] = tested on: Anopheles gambiae Kisumu strain (S); assay: Laboratory-scale tray larvicide test; assay type: in vivo; conditions: sun
Protocol: as §2, §3, §4, §7

An. stephensi = assay: Laboratory-scale tray larvicide test; assay type: in vivo; conditions: carrier mouse food; 6 mg per tray; loading concentration 0.64 μM; fluorescent lamp
Protocol: as §2, §3, §4, §7

[9] = carrier Eudragit, 30 mg per tray, loading concentration 25 μM
[10] = carrier cat food, 30 mg per tray, loading concentration 50 μM
[11] = carrier Eudragit, 15 mg per tray, loading concentration 25 μM
[12] = carrier Eudragit, 30 mg per tray, loading concentration 50 μM

CC1=C(CCC(=O)O)c2cc3[nH]c(cc4nc(cc5[nH]c(cc1n2)c(C)c5C(C)O)C(C)=C4C(C)O)c(C)c3CCC(=O)O (stereo not shown) [hematoporphyrin]
mortality (Culex sp.; semi-field, 10^−5 M, after 3 days under natural sunlight): 100%

chlorophyllin
LD50 (Culex sp.; laboratory, added to larval breeding water, after 3 h exposure to light intensity 146.66 W/m^2): 6.88 g/L

CCCCCCCCCCCC[n+]1ccc(-c2c3nc(c(-c4cc[n+](C)cc4)c4ccc([nH]4)c(-c4cc[n+](C)cc4)c4nc(c(-c5cc[n+](C)cc5)c5ccc2[nH]5)C=C4)C=C3)cc1 [C12, meso-tri(N-methyl-pyridyl), mono(N-dodecyl-pyridyl)porphine]
minimal photosensitizing dose (Tetrahymena thermophila): 3.0 µM | decrease of porphyrin concentration (photo-bleaching) [1]: up to 50% | Time to reach ≧90% mortality [2]: 0.5 h | Time to reach ≧90% mortality (Anopheles spp; carrier Eudragit, 15 mg per tray, loading concentration 15 μM): 3 h | Time to reach ≧90% mortality (Anopheles spp; [9]): 0.5 h | Time to reach ≧90% mortality (Anopheles spp; [10]): 3 h | LD-50 (Artemia franciscana [3]): >10.0 µM | Mortality (%) (Artemia franciscana [3]; porphyrin dose 6.0 μM): 20% | LD-50 (Colpoda inflata; cysts): >1.0 µM | Mortality (%) (Colpoda inflata; cysts, porphyrin dose 1.0 μM): 20% | LD-50 (Colpoda inflata; trophozoites): 1.0 µM | Mortality (%) (Colpoda inflata; trophozoites, porphyrin dose 0.6 μM): 40% | LD-50 (Daphnia magna [4]): 0.3 µM | Mortality (%) (Daphnia magna [4]; porphyrin dose 0.3 μM): 50% | minimal photosensitizing dose (Artemia franciscana [5]): >10.0 µM | minimal photosensitizing dose [6]: 0.2 µM | minimal photosensitizing dose (Daphnia magna [7]): 0.3 µM | Time to reach ≧90% mortality (An. gambiae (M); [11]): 0.5 h | Time to reach ≧90% mortality (An. gambiae (M); [10]): 3 h | Time to reach ≧90% mortality (An. arabiensis; carrier Eudragit, 15 mg per tray, loading concentration 5 μM): 3 h | Time to reach ≧90% mortality (An. arabiensis; [12]): 0.5 h | Time to reach ≧90% mortality (An. arabiensis; [10]): 3 h | Time to reach ≧90% mortality [8, 11]: 0.5 h | Time to reach ≧90% mortality ([8]; carrier Eudragit, 15 mg per tray, loading concentration 50 μM): 0.5 h | Time to reach ≧90% mortality [8, 9]: 0.5 h | Time to reach ≧90% mortality [8, 12]: 0.5 h | Time to reach ≧90% mortality ([8]; carrier Eudragit, 60 mg per tray, loading concentration 50 μM): 0.5 h | Time to reach ≧90% mortality ([8]; carrier cat food, 30 mg per tray, loading concentration 25 μM): 8 h | Time to reach ≧90% mortality [8, 10]: 0.5 h | Time to reach ≧90% mortality ([8]; carrier cat food, 30 mg per tray, loading concentration 100 μM): 0.5 h | Time to reach ≧90% mortality ([8]; carrier cat food, 60 mg per tray, loading concentration 100 μM): 0.5 h | Time to reach ≧90% mortality (An. stephensi): 6 h
